Assay results from patent US9303009B2, “Migrastatins and uses thereof” (Sloan-Kettering Institute for Cancer Research, priority 2011, dated 2016).
Like-named read-outs stand apart in the source and are kept apart here.

Columns and labels:
AC3-TGL cells = experiment: human primary SCLC xenograft model, Example 15; format: in vivo
From the text: This Example studied whether the ME analog affects tumor metastasis in a human small cell lung cancer (SCLC) primary xenograft model. These cells in primary and subsequent in vivo passages in NOD-SCID mice formed liver metastases. The tumor cells were stably transduced with a triple-fusion protein reporter construct (AC3-TGL), and were transplanted by subcutaneous injection with matrigel into NOD/SCID IL2R gamma null (NSG) mice. Started 1 day prior the inoculation of tumor cells, ME treatment was initiated by intraperitoneal injection at 40 mg/kg (ME40) or 200 mg/kg (ME200) three times a week in groups of 5 mice. Control mice were treated with DMSO vehicle. Tumor burden and metastatic spread were monitored every 5 days by serial non-invasive bioluminescent imaging. […] At the endpoint, the potential metastatic sites (liver, lung, spleen, heart and kidney, gastrointestinal tract) were surgically resected and the luciferase activity quantified by ex-vivo bioluminescence imaging (FIG. 5b).
For the results depicted in FIGS. 5a-c, AC3-TGL cells were transplanted by subcutaneous ventral injection into NSG mice. Xenografted mice were treated with indicated dosages of ME every 3 days started from day −1 after tumor inoculation: 40 mg/kg (ME40, n=5), 200 mg/kg (ME200, n=5)) and DMSO vehicle (Control, n=5). At day 45, the mice were sacrificed. Three mice in the ME200 group died before the end of treatment, at day 23, 30 and 34. (A) Tumor growth. Every 5 days, the tumor burden was monitored by in vivo Bioluminescence Imaging (BI) and data is expressed as photon flux (flux in photon/sec)+/−SEM in log scale. (B, C) Tumor metastasis at endpoint. At day 45, mice were analyzed for metastasis by ex vivo BI quantifying luciferase activity in the excised lungs (Lu), liver (Li), heart (H), kidneys (K) and the spleen (S). Measurements for each mouse are presented on the panel B (circles), with the average per group (short line) and expressed as photon flux (flux in photon/sec) in log scale. P-values were obtained using two-tailed Mann-Whitney U-test. Pictures of bioluminescence signal measured on the organs from 1 mouse of each group are presented on the panel C. Each picture is presented with the same settings (4 min exposure; photon signal; color scale from 5.E6 (min) to 1.E8 (max)).
Xenograft Model for Example 15: A human primary SCLC xenograft model was developed in 10-14 weeks old male non-obese diabetic severe combined immunodeficient (NOD/SCID) Interleukin-2 gamma Chain Receptor Null Mice (NSG). Primary tumor samples were obtained after patient informed consent. AC3-TGL primary cells growing as clumps were processed into a single-cell suspension by Trypsin/Collagenase IV (Invitrogen) sequential treatment and filtrated as described above. Xenografts were performed by subcutaneous ventral injection of 10^3 AC3-TGL cells in serum-free medium mixed with Matrigel (Becton Dickinson). One day prior to the tumor cell injection, mice were pretreated with Migrastatin Ether (ME) compounds at a dose of either 40 mg/kg or 200 mg/kg per mouse or with DMSO vehicle control (n≧5 mice per group). […] During this time, the tumor burden and metastatic spread were monitored by bioluminescence imaging (BLI) every 5 days. At day 45 (endpoint), the mice were killed and the metastatic spread of tumor cells to the lungs, liver, heart, kidneys, spleen and GI tract was assessed by ex-vivo BLI on the removed organs.

[1] = test system: MDA231-LM2 lung metastatic breast cancer cells; experiment: trans-well cell migration assay, 3 μm pore Boyden chamber; format: cell-based; details: 24 h pre-treatment, 5 h migration
Experimental: MDA231-LM2 lung metastatic breast cancer cells were pre-treated with the indicated concentrations of ME or Carboxymethyl-ME for 24 hours. Following the pre-treatment, migration was determined using a Boyden chamber with 3 μm pore size filters. Cells were allowed to migrate for 5 hours through the chamber (in the presence of ME or Carboxymethyl-ME). Cells that traversed the porous membranes were analyzed and scored under a fluorescence microscope. […] The results are expressed as transmigrated cells per optical field. Data are averages of triplicates ±S.D. (See FIG. 6)

[2] = mouse pharmacokinetics, plasma HPLC-MS/MS; format: in vivo, mice (B6D2F1); details: for AUC(0-t): 20 mg/kg in 2% GDM-12, read-out: AUC0-24 hr; for half-life: 20 mg/kg in 2% GDM-12, read-out: Half-life (t1/2) (converted)
Experimental: Groups of mix gender mice (B6D2F1) were used. Pharmacokinetics (PK) were performed on heparinized mouse plasma samples obtained typically at 0 hr, 0.17 hr, 0.5 hr, 0.75 hr, 1 hr, 2 hr, 4 hr, 8 hr, 16 hr and 24 hr after the bolus intravenous or intraperitoneal injections for CME. Samples were analyzed using a HPLC-MS/MS method. To determine the level of CME, the drug was first isolated from plasma with a sample pre-treatment. Acetonitrile were used to remove proteins in samples. An isocratic HPLC-MS/MS method was then used to separate the drugs from any potential interference. Compound levels were measured by MS detection with a multiple reaction monitoring (MRM) mode. PK data was analyzed using the WinNonlin program (ver. 5.3, Pharsight) compartmental model of analysis.
The hashed line is (A: ip) and the solid line is (B:iv) The drug was administered intravenously or intraperitoneally and the dosing strength was 20 mg/kg.

[3] = both sexes, B6D2F1, plasma, ip, 20 mg/kg in 2% GDM-12
[4] = both sexes, B6D2F1, plasma, iv, 20 mg/kg in 2% GDM-12

SMILES	decrease of overall metastasis (AC3-TGL cells; 40 mg/kg i.p. every 3 days, day 45, vs control) [%]	mice died before the endpoint (AC3-TGL cells; 200 mg/kg group of 5) [mice]	metastasis inhibition (AC3-TGL cells; 200 mg/kg i.p. every 3 days, day 45, 2 surviving mice) [%]	side effects in surviving mice (AC3-TGL cells; 200 mg/kg, 2 surviving mice, after 45 days of treatment)	tumor growth kinetics at the primary site of injection (AC3-TGL cells; 40 or 200 mg/kg i.p.)	potency relative to ME at inhibiting migration [1]	AUC(0-inf) [2, 3] [ng·h/mL]	Cmax [2, 3] [ng/mL]	bioavailability [2, 3] [%]	AUC(0-t) ([2]; both sexes, B6D2F1, plasma, ip) [ng·h/mL]	half-life ([2]; both sexes, B6D2F1, plasma, ip) [h]	AUC(0-inf) [2, 4] [ng·h/mL]	Cmax [2, 4] [ng/mL]	clearance [2, 4] [mL/min/kg]	AUC(0-t) ([2]; both sexes, B6D2F1, plasma, iv) [ng·h/mL]	half-life ([2]; both sexes, B6D2F1, plasma, iv) [h]	CL ([2]; ip, 20 mg/kg in 2% GDM-12) [mL/min/kg]
CO[C@H]1/C=C/CCCCCOC/C(C)=C\[C@@H](C)[C@@H]1O [ME, migrastatin ether]	93	3	99	no body-weight loss, lethargy or other obvious side effects	did not significantly interfere	–	–	–	–	–	–	–	–	–	–	–	–
CO[C@H]1/C=C/CCCCCOC/C(C)=C\[C@@H](C)[C@@H]1OCC(=O)O [CME, Carboxymethyl migraether]	–	–	–	–	–	approximately 20 fold	27900	369	77.8	27800	2.4	36000	1540	9.25	35700	2.9	11.96
